Data taken from US7951812B2, “Substituted pyrrolo[2,3-d]pyrimidines as antifolates” (Chelsea Therapeutics, Inc., priority 2007, dated 2011).
Structures can show the parent of a compound that is named as a salt.

Key:
Assay type in all cases: biochemical
[1] = target: T1, DHFR in CCRF-CEM human leukemia cells (Homo sapiens, UniProt P00374); test: DHFR enzyme inhibition assay; details: DHFR from CCRF-CEM cells, pre-incubation with NADPH 3 minutes at 37° C.
T1 construct: endogenous in cells; host or cells: CCRF-CEM
T1 sequence (P00374 1-187): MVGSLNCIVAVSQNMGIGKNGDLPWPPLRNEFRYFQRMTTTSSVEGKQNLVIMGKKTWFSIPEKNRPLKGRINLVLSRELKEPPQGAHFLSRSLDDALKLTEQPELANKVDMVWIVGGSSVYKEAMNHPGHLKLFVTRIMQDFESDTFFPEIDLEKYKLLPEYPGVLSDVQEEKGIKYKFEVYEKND

[2] = target: T2, TS in CCRF-CEM human T-lymphoblastic leukemia cells (Homo sapiens, UniProt P04818); test: TS enzyme inhibition assay; details: TS from CCRF-CEM cells, up to five graded concentrations; read-out: IC50 against TS
T2 construct: endogenous in cells; host or cells: CCRF-CEM
T2 sequence (P04818 whole entry): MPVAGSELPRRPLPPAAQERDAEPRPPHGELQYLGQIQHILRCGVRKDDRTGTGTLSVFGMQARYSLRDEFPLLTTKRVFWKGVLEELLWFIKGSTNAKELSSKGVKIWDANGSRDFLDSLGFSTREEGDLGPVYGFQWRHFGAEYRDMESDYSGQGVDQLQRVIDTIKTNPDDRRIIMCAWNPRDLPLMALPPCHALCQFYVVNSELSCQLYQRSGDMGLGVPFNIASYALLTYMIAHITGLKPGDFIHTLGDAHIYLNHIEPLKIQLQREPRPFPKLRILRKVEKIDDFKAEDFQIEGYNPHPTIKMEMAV
Method: The inhibitory potency against TS in CCRF-CEM human T-lymphoblastic leukemia cells was assessed by introducing up to five graded concentrations of compounds into the reaction mixture, initiating the reaction by addition of TS, and quantitating remaining TS activity.

AICART = AICART (Homo sapiens, UniProt P31939); test: AICART inhibition (similar tests); details: read-out: IC50 against AICART
Chain of AICART (P31939 whole entry): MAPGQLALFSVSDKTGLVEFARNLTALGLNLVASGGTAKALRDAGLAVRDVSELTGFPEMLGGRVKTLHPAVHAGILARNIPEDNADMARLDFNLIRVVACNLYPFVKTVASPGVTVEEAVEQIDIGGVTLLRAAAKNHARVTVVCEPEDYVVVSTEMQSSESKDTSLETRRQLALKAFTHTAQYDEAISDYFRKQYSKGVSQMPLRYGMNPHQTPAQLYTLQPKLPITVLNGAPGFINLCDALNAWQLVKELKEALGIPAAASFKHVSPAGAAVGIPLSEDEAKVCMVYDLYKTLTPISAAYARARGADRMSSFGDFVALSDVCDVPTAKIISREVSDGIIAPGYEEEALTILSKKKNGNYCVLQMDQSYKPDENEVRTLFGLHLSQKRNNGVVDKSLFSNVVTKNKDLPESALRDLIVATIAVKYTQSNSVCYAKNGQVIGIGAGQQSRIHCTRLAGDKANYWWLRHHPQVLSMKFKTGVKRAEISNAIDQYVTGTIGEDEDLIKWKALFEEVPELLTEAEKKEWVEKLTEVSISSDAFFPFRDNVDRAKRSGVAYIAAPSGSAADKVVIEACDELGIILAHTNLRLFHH
Excerpt: (§1) The above data illustrates the selectivity of the novel antifolates in enzyme inhibition. […] As previously noted, such selectivity in activity can be useful for improving activity against specific conditions while avoiding undesirable side effects.

GARFT = target: T3, GARFT (Homo sapiens, UniProt P22102); test: GARFT inhibition (similar tests); details: read-out: IC50 against GARFT
T3 sequence (P22102 1-1010): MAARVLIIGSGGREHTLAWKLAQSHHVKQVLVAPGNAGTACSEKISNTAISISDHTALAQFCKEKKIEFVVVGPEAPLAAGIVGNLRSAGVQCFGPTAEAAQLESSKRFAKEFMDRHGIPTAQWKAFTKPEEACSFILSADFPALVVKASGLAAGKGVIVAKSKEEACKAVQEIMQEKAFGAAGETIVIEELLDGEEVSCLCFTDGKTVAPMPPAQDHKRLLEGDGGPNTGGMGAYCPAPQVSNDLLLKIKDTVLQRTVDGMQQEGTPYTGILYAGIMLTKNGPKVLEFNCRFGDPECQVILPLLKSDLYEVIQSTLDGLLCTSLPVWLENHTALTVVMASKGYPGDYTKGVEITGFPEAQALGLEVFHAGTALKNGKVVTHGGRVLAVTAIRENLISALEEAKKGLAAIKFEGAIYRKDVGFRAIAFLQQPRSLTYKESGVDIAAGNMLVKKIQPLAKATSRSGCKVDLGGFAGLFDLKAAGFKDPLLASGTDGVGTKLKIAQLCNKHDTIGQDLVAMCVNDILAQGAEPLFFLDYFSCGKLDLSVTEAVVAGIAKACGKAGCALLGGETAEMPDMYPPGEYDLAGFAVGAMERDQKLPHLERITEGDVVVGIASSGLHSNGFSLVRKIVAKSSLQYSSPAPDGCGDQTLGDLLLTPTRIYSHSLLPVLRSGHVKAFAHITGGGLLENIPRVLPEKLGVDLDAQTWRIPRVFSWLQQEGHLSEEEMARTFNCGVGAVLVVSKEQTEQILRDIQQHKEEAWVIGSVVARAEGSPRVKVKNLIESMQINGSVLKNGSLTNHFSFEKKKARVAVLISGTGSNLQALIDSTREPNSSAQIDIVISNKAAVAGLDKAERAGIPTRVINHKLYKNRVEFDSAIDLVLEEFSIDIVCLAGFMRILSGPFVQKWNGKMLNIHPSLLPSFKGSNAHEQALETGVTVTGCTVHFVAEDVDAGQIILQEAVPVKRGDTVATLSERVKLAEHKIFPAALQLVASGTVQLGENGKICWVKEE
Excerpt: as §1

| IC50 [1] [µM] | IC50 [2] [µM] | IC50 (AICART) [µM] | IC50 (GARFT) [µM] | SMILES |
| --- | --- | --- | --- | --- |
| 0.0052 | – | – | – | C=C(C[C@H](NC(=O)c1ccc(CCc2c[nH]c3nc(N)nc(N)c23)cc1)C(=O)O)C(=O)O [CHL1007, (S)-N-{4-[2-(2,4-diamino-7H-pyrrolo[2,3-d]pyrimidin-5-yl)ethyl]benzoyl}-4-methylene-L-glutamic acid disodium salt] |
| 0.0125 | > 50 | > 50 | > 50 | C=C(CC(NC(=O)c1ccc(CCc2c[nH]c3nc(N)nc(N)c23)cc1)C(=O)O)C(=O)O (racemic) [CHL-003, N-{4-[2-(2,4-diamino-7H-pyrrolo[2,3-d]pyrimidin-5-yl)ethyl]benzoyl}-4-methylene-glutamic acid] |
| 0.0011 | 8 | – | – | C=C(CC(NC(=O)c1ccc(CCc2ccc3nc(N)nc(N)c3c2)cc1)C(=O)O)C(=O)O (stereo not shown) [Mobiltrex, 2-{4-[2-(2,4-diamino-quinazolin-6-yl)-ethyl] -benzoylamino}-4-methylidene-pentanedioic acid, reference compound] |
